Measured values as given in PubChem BioAssay AID720495 (Broad Institute, 2013).
“And” between values parts separate entries of the source, which are not always exact repeats. Equal entries are not always repeated. Inconclusive results are not listed. The source made the active and inactive calls. No rule for the calls is given here.

Each compound was assayed against Protein AF-9 (Homo sapiens) (UniProt P42568) (assay: inhibitors of AF4-AF9 protein interaction, dose response, biochemical, cherry-picked samples, plate reader (AID 720495)). Details: biochemical protein-protein interaction assay.
Protein AF-9 (Homo sapiens), sequence (P42568 whole entry, looked up): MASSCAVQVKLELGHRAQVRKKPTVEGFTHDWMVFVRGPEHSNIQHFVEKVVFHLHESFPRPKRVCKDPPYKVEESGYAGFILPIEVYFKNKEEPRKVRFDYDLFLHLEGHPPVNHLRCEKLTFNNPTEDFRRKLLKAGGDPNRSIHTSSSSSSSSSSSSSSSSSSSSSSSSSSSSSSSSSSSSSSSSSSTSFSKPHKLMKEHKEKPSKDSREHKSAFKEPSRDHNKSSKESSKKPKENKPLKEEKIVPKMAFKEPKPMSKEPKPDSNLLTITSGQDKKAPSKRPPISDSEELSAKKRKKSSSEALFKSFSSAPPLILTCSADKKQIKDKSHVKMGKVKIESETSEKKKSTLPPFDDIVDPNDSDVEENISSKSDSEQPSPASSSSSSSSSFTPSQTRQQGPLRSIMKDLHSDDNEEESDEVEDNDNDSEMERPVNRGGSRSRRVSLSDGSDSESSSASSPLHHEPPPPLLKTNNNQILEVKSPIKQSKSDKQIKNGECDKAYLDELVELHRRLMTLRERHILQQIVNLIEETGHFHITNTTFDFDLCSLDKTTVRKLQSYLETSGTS
In the case of C#CCOCCOCCOCCNc1nc(N2CCN(C(=O)[C@H](CCCCN)n3cc([C@@H](N)CC(N)=O)nn3)CC2)nc(N2CCN(C(=O)[C@H](CCCCN)n3cc([C@@H](N)CC(N)=O)nn3)CC2)n1, the AC50 is reported as 6.87 µM. With COc1cc(C2CC(=O)Oc3c(C(CCN4CCOCC4)c4ccc(N(C)C)cc4)c(OC)cc(OC)c32)cc(OC)c1OC (configuration not stated) the AC50 was 1.55 µM. CCN(CCCl)c1cc(CN(C)C)cc(NC(=O)c2ccc(C(=O)Nc3cc(CN(C)C)cc(N(CC)CCCl)c3)cc2)c1 showed an AC50 of 0.683 µM. Compound COC1=C(Nc2ccccc2OC)C(=O)c2ccccc2C1=O has an AC50 of 3.9 µM. For O=C1c2ccccc2NC(c2cccc([N+](=O)[O-])c2)N1O (configuration not stated), the AC50 was 11.2 µM. Cc1ccc2nc(-c3ccc(NC(=S)NC4CC(C)(C)NC(C)(C)C4)cc3)sc2c1 gave an AC50 of 7.34 µM. Compound C[C@H]1CCCCO[C@H](CN(C)Cc2ccc(Cl)c(Cl)c2)[C@@H](C)CN([C@@H](C)CO)C(=O)c2cc(N(C)C)ccc2O1 has an AC50 of 10.6 µM. With C[C@@H]1CN([C@@H](C)CO)C(=O)c2cc(N(C)C)ccc2O[C@@H](C)CCCCO[C@@H]1CN(C)Cc1ccc(C(F)(F)F)cc1 the AC50 was 10.5 µM. With O=C(COc1ccc2ccc(=O)oc2c1)Nc1ccc(N2CCCCC2)cc1 the AC50 was 9.56 µM. In the case of CSc1ccc2c(c1)N(CCC1CCCCN1C)c1ccccc1S2 (configuration not stated), the AC50 is reported as 6.31 µM. N#C/C(C(N)=O)=c1/ccc2c(c1)N1C3=C(CCCC3)CC3CCCCC31N=2 (configuration not stated) was tested, and the AC50 was 0.767 µM. In the case of C[C@H](CO)N1C[C@H](C)[C@@H](CN(C)Cc2ccc(Oc3ccccc3)cc2)Oc2ccc(N(C)C)cc2C1=O, the AC50 is reported as 10.7 µM. For COc1ccc(OC)c(Nc2c3ccccc3nc3ccccc23)c1, the AC50 was 7.11 µM. COc1cc(Nc2c3ccccc3nc3ccccc23)cc(OC)c1OC gave an AC50 of 0.234 µM. Compound CN(C)c1cccc2c(C=C(C#N)C#N)ccc(N(C)C)c12 has an AC50 of 1.04 µM. Work on Cc1ccnc(NC(c2cccnc2)c2ccc3cccnc3c2O)c1 (configuration not stated) yielded an AC50 of 0.808 µM. In the case of CC(=NNC(=S)N1CCN(C2CCCCCC2)CC1)c1ccccn1, the AC50 is reported as 0.687 µM. With CC1C(=NO)C(C)C(c2ccc(N(C)C)cc2)NC1c1ccc(N(C)C)cc1 (configuration not stated) the AC50 was 10.4 µM. For CCSc1ccc(-c2cc(NC=O)c3ncc(-c4cccc(C(=O)NCCN(C)C)c4)n3c2)cc1, the AC50 was 0.798 µM. For CN1CCN(C(c2ccc(C(F)(F)F)cc2)c2ccc3cccnc3c2O)CC1 (configuration not stated), the AC50 was 0.857 µM. With CN1CCN(C(c2ccccn2)c2cc(Cl)c3cccnc3c2O)CC1 (configuration not stated) the AC50 was 2.05 µM. C#CCOCCOCCOCCNc1nc(N2CCN(C(=O)[C@H](CCCN=C(N)N)n3cc(C(N)[C@@H](C)CC)nn3)CC2)nc(N2CCN(C(=O)[C@H](CCCCN)n3cc([C@@H](N)[C@H](C)CC)nn3)CC2)n1 (some centres not stated) showed an AC50 of 3.6 µM. CCc1cccc(NC(=O)CCCCCC2NC(=O)NC2C)c1 (configuration not stated) was tested, and the AC50 was less than 0.08 µM. For Cc1[nH]c2ccc(O)cc2c1CCN, the AC50 was 5.35 µM. CN(C)CC/C=C1\c2ccc(F)cc2Sc2cc(F)c(Cl)cc21 showed an AC50 of 9.52 µM. O=C(N/N=C/c1c(O)ccc2ccccc12)c1ccc[n+](CCO)c1 was tested, and the AC50 was 0.257 µM. For CC[n+]1c(/C=C/C=C/c2ccc(N(C)C)cc2)sc2ccccc21, the AC50 was 0.522 µM. With O=C1c2c(O)ccc(O)c2C(=O)c2c(NCCNCCO)ccc(NCCNCCO)c21 the AC50 was 0.15 µM and 0.374 µM. Work on CN(C)c1ccc(N=Cc2cccn2C)cc1 yielded an AC50 of 0.83 µM. For Cc1cccc(N=NC(=S)NNc2cccc(C)c2)c1, the AC50 was 0.212 µM. In the case of CS(=O)(=O)N1CCCCN2[C@H](C1)[C@H](c1ccc(C#Cc3ccccn3)cc1)[C@@H]2CO, the AC50 is reported as 7.82 µM. For Cc1ccn2c(Nc3ccc4c(c3)OCO4)c(-c3ccccn3)nc2c1, the AC50 was 3.55 µM. For Cc1cccc(NC2=C(NCCO)C(=O)c3ccccc3C2=O)c1, the AC50 was 3.55 µM. Compound CC(C)Nc1ccc(Nc2ccnc3cc4ccccc4cc23)cc1 has an AC50 of 2.45 µM. In the case of C[C@@H]1CCCCO[C@H](CN(C)Cc2ccc(Cl)c(Cl)c2)[C@@H](C)CN([C@H](C)CO)C(=O)c2cc(N(C)C)ccc2O1, the AC50 is reported as 10.1 µM. Compound COc1ccc(NCc2nn(CC(=O)c3ccc(Br)cc3)c3[n+]2CCCCC3)cc1 has an AC50 of 8.83 µM. With NCC(O)c1cc(O)c(O)cc1F (configuration not stated) the AC50 was 6.14 µM. Compound CCN(CC)CCOc1ccc(/C(=C(/Cl)c2ccccc2)c2ccccc2)cc1 has an AC50 of 0.529 µM. In the case of CN(C)CCCNC(=S)NCC(c1ccc(Cl)cc1Cl)c1c[nH]c2ccccc12 (configuration not stated), the AC50 is reported as 10.7 µM. With c1ccc(N=Nc2ccc3cccccc2-3)cc1 the AC50 was 0.232 µM. Work on CC(C)(c1ccccc1)c1ccc(OCC(O)CNC2CCN(Cc3ccccc3)CC2)cc1 (configuration not stated) yielded an AC50 of 0.841 µM. Oc1c(C(Nc2cccc(C(F)(F)F)c2)c2ccncc2)ccc2cccnc12 (configuration not stated) showed an AC50 of 0.515 µM. For NC(N)=NCCCS(=O)(=O)Nc1ccc(Nc2c3ccccc3nc3cc([N+](=O)[O-])ccc23)cc1, the AC50 was 2.85 µM. Compound CN(C)c1ccc(CNCCC(Cc2ccccc2)c2ccco2)cc1 (configuration not stated) has an AC50 of 5.44 µM. Compound CCC1CN2CCc3cc(OC)c(OC)cc3C2CC1CC1NCCc2c1[nH]c1ccc(O)cc21 (configuration not stated) has an AC50 of 7.26 µM. Work on COc1cc(OC)c2c(-c3ccccc3)cc(=O)oc2c1C(CCN1CCCC(C)C1)c1ccc(N(C)C)cc1 (configuration not stated) yielded an AC50 of 0.943 µM. Work on COc1ccc2nc3ccccc3nc2c1N yielded an AC50 of 3.44 µM. Work on Oc1cc(-c2ccncc2)cc2cccnc12 yielded an AC50 of 3.01 µM. O=C1c2cccc(NCCNCCO)c2C(=O)c2cccc(NCCNCCO)c21 was tested, and the AC50 was 6.88 µM. CN(C)CCCNC(=O)c1ccc(-c2cc(O)c3ncccc3c2)cc1 was tested, and the AC50 was 0.693 µM. Work on CCN(CC)c1ccc(CNc2nc3ccccc3n2CCN2CCCCC2)cc1 yielded an AC50 of 5.83 µM.

Same assay, conditions: biochemical protein-protein interaction assay, at 10 µM (top of the series)
For C[C@@H]1CCCCO[C@H](CN(C)Cc2ccc(C(F)(F)F)cc2)[C@H](C)CN([C@H](C)CO)C(=O)c2cc(N(C)C)ccc2O1, the “activity change, negative = inhibition” value was “inactive”. CC(C)N1C(=O)/C(=C\c2nc3ccccc3c(=O)[nH]2)c2ccccc21 was tested, and the “activity change, negative = inhibition” value was “inactive”. With CN(C)C(CNC(C(=O)Nc1ccc([N+](=O)[O-])cc1Br)c1ccccc1)c1ccccc1 (configuration not stated) the “activity change, negative = inhibition” value was “inactive”. For COc1ccc(N2CCN(C3CCCCC3NS(=O)(=O)c3ccccc3)CC2)cc1 (configuration not stated), the “activity change, negative = inhibition” value was “inactive”. For CCn1c(C)c(C(C)=O)c(N2CCN(c3ccc(OC)cc3)CC2)nc1=S, the “activity change, negative = inhibition” value was “inactive”. In the case of CCOC(=O)C1CCCN(C2=C(NS(=O)(=O)c3ccc(Br)cc3)C(=O)c3ccccc3C2=O)C1 (configuration not stated), the “activity change, negative = inhibition” value is reported as “inactive”. For CCC(=O)N(C)C[C@H]1Oc2cc(C#Cc3ccncc3)ccc2S(=O)(=O)N([C@@H](C)CO)C[C@@H]1C, the “activity change, negative = inhibition” value was “inactive”. In the case of Nc1ccc(N)c(C(=O)O)c1, the “activity change, negative = inhibition” value is reported as “inactive”. CN=c1scc(-c2ccccc2F)n1/N=C(\C)c1cccnc1 was tested, and the “activity change, negative = inhibition” value was “inactive”. In the case of COc1cc(O)c(C(CCN2CCN(c3ccccc3)CC2)c2ccc(N(C)C)cc2)c(OC)c1 (configuration not stated), the “activity change, negative = inhibition” value is reported as “inactive”. In the case of Cc1ccc2nc(-c3ccccn3)c(NC3CCCC3)n2c1, the “activity change, negative = inhibition” value is reported as “inactive”. CNC(=S)N1N=C(c2ccc(C)cc2)CC1c1ccc(N(C)C)cc1 (configuration not stated) was tested, and the “activity change, negative = inhibition” value was “inactive”. For Cn1ccc2c(/C=C/c3ccc(F)cc3)cc3c(c21)C1CCC3C1 (configuration not stated), the “activity change, negative = inhibition” value was “inactive”. Cc1cccc(-c2ccc3[nH]c4c(c3c2)CCN2C[C@H]3[C@H](C)ON(C)[C@H]3C[C@@H]42)c1 was tested, and the “activity change, negative = inhibition” value was “inactive”. O=C(Nc1cccc(CNCCc2c[nH]c3ccccc23)c1)c1ccccc1Cl was tested, and the “activity change, negative = inhibition” value was “inactive”. For Cc1ccc(NC(=S)N(CCCN2CCCC2)Cc2cccn2Cc2ccc(Cl)cc2)cc1, the “activity change, negative = inhibition” value was “inactive”. In the case of COc1ccc(N=C2S/C(=C\c3ccc(Cl)c([N+](=O)[O-])c3)C(=O)N2CCN(C)C)cc1, the “activity change, negative = inhibition” value is reported as “inactive”. In the case of S=C(c1ccc(-c2cccc(Cl)c2)o1)N1CCOCC1, the “activity change, negative = inhibition” value is reported as “inactive”. With Cc1cc(N=Nc2ccc(Cl)cc2)cc(CN2CCCC2)c1O the “activity change, negative = inhibition” value was “inactive”. In the case of Cc1c(C)n(Cc2ccc(Cl)cc2)c2ccc(C(=O)NCCCN3CCOCC3)cc12, the “activity change, negative = inhibition” value is reported as “inactive”. O=C1CN=C(c2ccc(Br)cc2)c2c(sc3c2CCCC3)N1CCN1CCCCC1 was tested, and the “activity change, negative = inhibition” value was “inactive”. In the case of Cc1cc(C)c2sc(N(CCCN(C)C)C(=O)c3ccc(S(=O)(=O)N4CCCc5ccccc54)cc3)nc2c1, the “activity change, negative = inhibition” value is reported as “inactive”. For COc1cccc(-c2sc3ccccc3c2-c2ccc(OCCN(C)C)cc2)c1, the “activity change, negative = inhibition” value was “inactive”. For Cc1cc(N=Nc2ccc(Cl)cc2)cc(CN2CCOCC2)c1O, the “activity change, negative = inhibition” value was “inactive”. With C#CCOCCOCCOCCNc1nc(N2CCN(C(=O)[C@H](CCCN=C(N)N)n3cc(C(N)[C@@H](C)CC)nn3)CC2)nc(N2CCN(C(=O)[C@H](CCCCN)n3cc([C@@H](N)CC(N)=O)nn3)CC2)n1 (some centres not stated) the “activity change, negative = inhibition” value was “inactive”. For Cc1nn(-c2ccccc2)c(Cl)c1/C=C1\C(=O)N(C)C(=S)N1C, the “activity change, negative = inhibition” value was “inactive”. With COc1ccc(N2CCN(CCCNC(=O)C(=O)c3c(C)n(C)c4ccccc34)CC2)cc1 the “activity change, negative = inhibition” value was “inactive”. In the case of CC(=O)Nc1ccc(S(=O)(=O)NC2=C(N3CCN(Cc4ccccc4)CC3)C(=O)c3ccccc3C2=O)cc1, the “activity change, negative = inhibition” value is reported as “inactive”. With CCN(CC)CCNc1cccc2sc3ccccc3c(=O)c12 the “activity change, negative = inhibition” value was “inactive”. For Cc1ccc2c(c1)c1c3n2CCCN(Cc2ccccc2)C3CCC1 (configuration not stated), the “activity change, negative = inhibition” value was “inactive”. In the case of O=C(Cc1cccnc1)N1CC(=O)N2[C@H](C1)[C@H](c1ccc(C3=CCCC3)cc1)[C@@H]2CO, the “activity change, negative = inhibition” value is reported as “inactive”. CN(C)c1ccc(NC(=S)NC23CC4CC(CC(C4)C2)C3)cc1 was tested, and the “activity change, negative = inhibition” value was “inactive”. With C[n+]1c2n(c3ccccc31)N=C(c1cc(C(C)(C)C)c(O)c(C(C)(C)C)c1)CS2 the “activity change, negative = inhibition” value was “inactive”. With Fc1ccc(-[n+]2nc(Nc3ccccc3)sc2-c2c(Cl)cccc2Cl)cc1 the “activity change, negative = inhibition” value was “inactive”. In the case of Cc1cc2c(OCC(O)CNC3CCCCC3)cccc2[nH]1 (configuration not stated), the “activity change, negative = inhibition” value is reported as “inactive”. In the case of COc1ccc(-c2ccc3[nH]c4c(c3c2)CCN2C[C@H]3[C@H](C)ON(C)[C@H]3C[C@@H]42)cc1, the “activity change, negative = inhibition” value is reported as “inactive”. CC#C[C@]1(O)CC[C@H]2[C@@H]3CCC4=CC(=O)CCC4=C3[C@@H](c3ccc(N(C)C)cc3)C[C@@]21C was tested, and the “activity change, negative = inhibition” value was “inactive”. With CCN(CC)CCSc1nc2ccccc2c(=S)n1-c1ccccc1 the “activity change, negative = inhibition” value was “inactive”. For COc1ccc(OC)c(NC2=C(Cl)C(=O)N(Cc3ccccc3)C2=O)c1, the “activity change, negative = inhibition” value was “inactive”. CC1Cc2ccccc2N1C(=O)c1ccc(N2CCCC2)c([N+](=O)[O-])c1 (configuration not stated) was tested, and the “activity change, negative = inhibition” value was “inactive”. With Cn1c(SCC(=O)N2c3ccccc3Sc3ccc(Cl)cc32)nnc1-c1ccco1 the “activity change, negative = inhibition” value was “inactive”.
